# Where two headings read alike, the source gives them in different places.
# Tests used:
# Matrigel plugs = assay: Administration to BALB/c mice: total RNA and capillary density in Matrigel plugs; type: in vivo; conditions: 10 mg/kg/day PO (BID)
# Procedure: BALB/c mice (2-3 months) were dosed with compound 4 in 2% ethanol at 10 mg/kg/day PO (BID). Mice were pre-dosed for 1 day (Day −1). Matrigel™ (BDBiosciences, California) was injected subcutaneously in the abdomen on Day 0, and the Matrigel™ plugs were harvested on Day 12.
# Total RNA, which reflects cell number, was increased 1.6-fold (p<0.2) n=5/group in Matrigel™ plugs after treatment with compound 4.
# The other half of the Matrigel™ plug was used for histology and CD31 immunostaining to analyze capillary density (CD31 is a marker for endothelial cells, which line the capillaries). A 1.3-fold increase in capillary density in (CD-31 immuno staining) (p<0.5) n=5/group was observed after treatment with compound 4.
# lung fibroblasts = assay: Long-term culture of lung fibroblasts; type: cell-based, human
# SAECs = assay: Alamar Blue Proliferation Assay in SAECs; type: cell-based, human; conditions: 3 days, 1% DMSO, different concentrations
# Procedure: Human SAECs or human fibroblasts were grown in the presence of different concentrations of compound 4 in a final concentration of 1% DMSO in the medium. After 3 days the cells were harvested and proliferation was measured using the Alamar Blue Proliferation Assay.
# [1] = parameters: species or system male Beagle dogs; conditions: male, Beagle, dog, in vivo, po, 10 mg/kg
# Procedure: The plasma level of a compound following a single intravenous and oral administration in male Beagle dogs was determined. Plasma samples were collected and used to determine the plasma concentration of the compound and metabolites. In addition tissue samples, including whisker samples and PBMC cells were collected for telomerase activity analysis.
# Male Beagle dogs were divided into treatment groups according to Table 5. The dogs were provided ad libitum SLAC-MO1 #W080701 (Shanghai Laboratories Animal Center, Shanghai, China) throughout the in-life portion of the study with the exception of the overnight fasting period prior to oral dosing. Water was available ad libitum.
# The compounds were dissolved in 2% EtOH/98% water […] to yield a final concentration of 2.5 mg/ml and 1 mg/ml for both intravenous and oral administration, respectively. The concentration of each compound was confirmed by HPLC analysis.
# Doses were administered intravenously via the left femoral vein and then by oral dosing one week later. Body weights were taken on the day of dose administration. Dose volume was determined based on individual body weight taken on day of dosing.
# Blood samples (approximately 250 μL) were collected via right femoral vein into tubes containing K2-EDTA anticoagulant and 1 mg/ml NaF at appropriate time points. Blood was stored on ice and then plasma separated via centrifugation (8000 rpm×6 minutes). The plasma was stored at […] until LC-MS/MS analysis.
# [2] = Plasma levels and bioavailability in rats; conditions: male, Sprague Dawley, rat, in vivo, po, 10 mg/kg
# Procedure: The plasma levels of a compound following a single intravenous and oral administration in carotid artery-cannulated male Sprague Dawley rats was determined. Plasma samples were collected and used to determine the plasma concentration of the compound and metabolites. In addition tissue samples, including whisker samples and PBMC cells were collected for telomerase activity analysis.
# Carotid artery-cannulated male Sprague Dawley rats were divided into treatment groups according to Table 6. The rats were provided ad libitum SLAC-MO1 # YY080208 (Shanghai Laboratories Animal Center, Shanghai, China) throughout the in-life portion of the study with the exception of the overnight fasting period prior to oral dosing. Water was available ad libitum.
# The compounds were dissolved in 2% EtOH/98% water to yield a final concentration of 2.5 mg/ml and 1 mg/ml for both intravenous and oral administration, respectively. The concentration of each compound was confirmed by HPLC analysis.
# Body weights were taken on the day of dose administration. Dose volume was determined based on individual body weight taken on day of dosing.
# Blood samples (approximately 250 μL) were collected via cannulae into tubes containing K2-EDTA anticoagulant and 1 mg/ml NaF at the various time points. Blood was stored on ice and then plasma separated via centrifugation (8000 rpm×6 minutes). The plasma was stored at […] until LC-MS/MS analysis.
# Percentage of bioavailability was calculated.
# telomerase = telomerase (Homo sapiens, UniProt O14746); assay: Keratinocyte cell/TRAP assay (HEKneo-P cells); type: cell-based; parameters: host or cells: HEKneo-P (pooled neonatal human epidermal keratinocytes); conditions: telomerase activation
# Sequence of telomerase (O14746 whole entry): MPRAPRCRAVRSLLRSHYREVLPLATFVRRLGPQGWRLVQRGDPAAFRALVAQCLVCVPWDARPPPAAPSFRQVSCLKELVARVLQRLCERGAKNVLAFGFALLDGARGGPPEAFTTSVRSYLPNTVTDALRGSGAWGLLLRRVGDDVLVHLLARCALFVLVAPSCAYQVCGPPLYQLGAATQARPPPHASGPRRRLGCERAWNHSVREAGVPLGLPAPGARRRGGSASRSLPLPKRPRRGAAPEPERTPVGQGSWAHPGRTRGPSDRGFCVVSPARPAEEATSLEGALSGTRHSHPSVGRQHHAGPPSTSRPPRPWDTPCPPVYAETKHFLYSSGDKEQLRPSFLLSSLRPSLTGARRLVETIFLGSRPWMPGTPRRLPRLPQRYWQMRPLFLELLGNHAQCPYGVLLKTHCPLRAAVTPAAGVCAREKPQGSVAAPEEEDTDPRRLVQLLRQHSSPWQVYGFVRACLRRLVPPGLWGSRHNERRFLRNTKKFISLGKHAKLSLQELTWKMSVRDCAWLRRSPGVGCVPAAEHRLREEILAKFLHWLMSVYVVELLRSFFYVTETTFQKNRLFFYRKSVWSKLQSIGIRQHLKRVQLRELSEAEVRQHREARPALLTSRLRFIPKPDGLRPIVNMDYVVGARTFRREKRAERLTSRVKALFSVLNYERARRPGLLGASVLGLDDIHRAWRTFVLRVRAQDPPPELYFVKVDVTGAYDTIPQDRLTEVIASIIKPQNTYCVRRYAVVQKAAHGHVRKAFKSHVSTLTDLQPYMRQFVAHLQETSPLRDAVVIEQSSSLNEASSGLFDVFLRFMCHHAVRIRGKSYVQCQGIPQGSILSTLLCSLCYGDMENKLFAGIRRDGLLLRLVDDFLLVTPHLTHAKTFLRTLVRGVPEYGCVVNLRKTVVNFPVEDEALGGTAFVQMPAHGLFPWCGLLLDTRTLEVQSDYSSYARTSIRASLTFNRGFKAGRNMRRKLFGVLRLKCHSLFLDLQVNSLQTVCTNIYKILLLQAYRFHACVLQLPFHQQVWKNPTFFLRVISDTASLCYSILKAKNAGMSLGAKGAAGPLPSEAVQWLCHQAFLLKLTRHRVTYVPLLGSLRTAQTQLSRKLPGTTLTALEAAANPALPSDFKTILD
# Excerpt: Harley et al., U.S. Pat. […] Harley et al., U.S. Pat. […] Non-treatment control (NT) was also included. […]
compound,measurement,setting,value
"CC(C)C(N)C(=O)OC1CCC23CC24CCC2(C)C(C5(C)CCC(C(C)(C)O)O5)C(O)CC2(C)C4CC(O)C3C1(C)C (stereo not drawn) [Compound 4, 2-(L)-Amino-3-methyl-butyric acid 6α,16β-dihydroxy-17-[5-(1-hydroxy-1-methyl-ethyl)-2-methyl-tetrahydro-furan-2-yl]-4,4,13,14-tetramethyl-tetradecahydro-cyclopropa[9,10]cyclopenta[a]phenanthren-3β-yl ester]",Total RNA (reflects cell number) increase in Matrigel plugs,"Matrigel plugs; Day 12, p<0.2",1.6 fold
same,increase in capillary density (CD-31 immuno staining),"Matrigel plugs; Day 12, p<0.5",1.3 fold
same,effect in long-term culture,lung fibroblasts,No effect
same,increased proliferation,SAECs,about 50%
same,Bioavailability % F,[1],47%
same,Bioavailability % F,[2],36%
same,EC50,telomerase,6 to 22 nM

# From patent US9403866B2, “Compositions and methods for increasing telomerase activity” (Telomerase Activation Sciences, Inc., priority 2009, dated 2016)
